Assay results as given in PubChem BioAssay AID256 (DTP/NCI, 2004).
Several values for one entry are separate records, joined by “and”; a condition that tells them apart may be missing. Identical values can stand only once. Toxic doses and inconclusive results are not listed. Rule for the calls: active = survival T/C of 150% or more; inactive = T/C below 125% in these data.

System: CD2F1 mice, L1210 leukemia ip, survival T/C
Test: NCI In Vivo Anticancer Drug Screen. Data for tumor model L1210 Leukemia (intraperitoneal) in CD2F1 (CDF1) mice
Conditions: higher = longer survival
How it was run: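 In this screen, transplantable tumors were grown in mice given either the compound or its vehicle. Results were expressed as the treated measurement relative to the control measurement.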

[1] = endpoint: mean survival time, dose: 100.0 mg/kg/injection, schedule: Q04DX003 (ip), vehicle: saline with Tween-80
[2] = endpoint: mean survival time, dose: 200.0 mg/kg/injection, schedule: Q04DX003 (ip), vehicle: saline with Tween-80
[3] = endpoint: mean survival time, dose: 100.0 mg/kg/injection, schedule: Q01DX009 (ip), vehicle: saline with Tween-80
[4] = endpoint: mean survival time, dose: 200.0 mg/kg/injection, schedule: Q01DX009 (ip), vehicle: saline with Tween-80
[5] = endpoint: mean survival time, dose: 400.0 mg/kg/injection, schedule: Q01DX009 (ip), vehicle: saline with Tween-80

Measured: T/C

CCCCOC(=O)COc1ccc(F)cc1F
inactive: endpoint: mean survival time, dose: 100.0 mg/kg/injection, schedule: Q04DX002 (ip), vehicle: saline with Tween-80 95 % of control | endpoint: mean survival time, dose: 200.0 mg/kg/injection, schedule: Q04DX002 (ip), vehicle: saline with Tween-80 100 % of control | endpoint: mean survival time, dose: 400.0 mg/kg/injection, schedule: Q04DX002 (ip), vehicle: saline with Tween-80 92 % of control

O=C1CCC(Cl)S(=O)(=O)c2ccccc21 (configuration not stated)
inactive: endpoint: mean survival time, dose: 100.0 mg/kg/injection, schedule: Q01DX001 (ip), vehicle: saline with Tween-80 97 % of control | endpoint: mean survival time, dose: 200.0 mg/kg/injection, schedule: Q01DX001 (ip), vehicle: saline with Tween-80 105 % of control | endpoint: mean survival time, dose: 400.0 mg/kg/injection, schedule: Q01DX001 (ip), vehicle: saline with Tween-80 94 % of control

CC1CCC(C(C)C2C(O)CC3C4CC=C5CC(O)CCC5(C)C4CCC32C)NC1 (configuration not stated)
inactive: endpoint: mean survival time, dose: 50.0 mg/kg/injection, schedule: Q04DX003 (ip), vehicle: saline with Tween-80 93 % of control | [1] 90 % of control and 96 % of control | [2] 87 % of control and 98 % of control

CCN(CC)Cc1cc(Nc2ncnc3sc(C)c(C)c23)ccc1O
inactive: [1] 92 % of control | [2] 88 % of control | endpoint: mean survival time, dose: 400.0 mg/kg/injection, schedule: Q04DX003 (ip), vehicle: saline with Tween-80 91 % of control

Cc1ccc(S(=O)(=O)N(C)Cc2ccccc2)cc1
inactive: [3] 96 % of control | [4] 106 % of control | [5] 98 % of control

N/C(=N\O)c1ccccc1
inactive: endpoint: mean survival time, dose: 50.0 mg/kg/injection, schedule: Q01DX009 (ip), vehicle: saline with Tween-80 103 % of control | [3] 98 % of control | [4] 90 % of control

O/N=C1\CCCC\C1=N/O.O/N=C1\CCCC\C1=N/O.[Pt]
inactive: endpoint: mean survival time, dose: 3.13 mg/kg/injection, schedule: Q04DX003 (ip), vehicle: dextrose 98 % of control | endpoint: mean survival time, dose: 6.25 mg/kg/injection, schedule: Q04DX003 (ip), vehicle: dextrose 98 % of control | endpoint: mean survival time, dose: 12.5 mg/kg/injection, schedule: Q04DX003 (ip), vehicle: dextrose 101 % of control | endpoint: mean survival time, dose: 25.0 mg/kg/injection, schedule: Q04DX003 (ip), vehicle: dextrose 98 % of control | endpoint: mean survival time, dose: 50.0 mg/kg/injection, schedule: Q04DX003 (ip), vehicle: dextrose 97 % of control and 101 % of control | endpoint: mean survival time, dose: 100.0 mg/kg/injection, schedule: Q04DX003 (ip), vehicle: dextrose 93 % of control and 101 % of control | endpoint: mean survival time, dose: 200.0 mg/kg/injection, schedule: Q04DX003 (ip), vehicle: dextrose 96 % of control and 101 % of control | endpoint: mean survival time, dose: 400.0 mg/kg/injection, schedule: Q04DX003 (ip), vehicle: dextrose 101 % of control

COC1=C(C)C(=O)C2=C(C1=O)C(CO)N1C(C#N)C3CC4C(C1C2N1CCOC41)N3C (configuration not stated)
inactive: endpoint: median survival time, dose: 0.12 mg/kg/injection, schedule: Q01DX005 (ip), vehicle: acid diluted with saline 102 % of control | endpoint: median survival time, dose: 0.12 mg/kg/injection, schedule: Q01DX009 (ip), vehicle: saline + alcohol 111 % of control | endpoint: median survival time, dose: 0.25 mg/kg/injection, schedule: Q01DX005 (ip), vehicle: acid diluted with saline 102 % of control | endpoint: median survival time, dose: 0.25 mg/kg/injection, schedule: Q01DX009 (ip), vehicle: saline + alcohol 113 % of control | endpoint: median survival time, dose: 0.5 mg/kg/injection, schedule: Q01DX005 (ip), vehicle: acid diluted with saline 105 % of control | endpoint: median survival time, dose: 0.5 mg/kg/injection, schedule: Q01DX009 (ip), vehicle: saline + alcohol 111 % of control | endpoint: median survival time, dose: 1.0 mg/kg/injection, schedule: Q01DX005 (ip), vehicle: acid diluted with saline 104 % of control | endpoint: median survival time, dose: 1.0 mg/kg/injection, schedule: Q01DX009 (ip), vehicle: saline + alcohol 108 % of control

O=C(O)C1CC(Br)C(Br)CC1C(=O)O (configuration not stated)
inactive: [3] 95 % of control | [4] 100 % of control | [5] 91 % of control

CC1(C)COCN1COCCOCN1COCC1(C)C
inactive: endpoint: mean survival time, dose: 6.25 mg/kg/injection, schedule: Q01DX009 (ip), vehicle: saline 97 % of control and 98 % of control | endpoint: mean survival time, dose: 12.5 mg/kg/injection, schedule: Q01DX009 (ip), vehicle: saline 100 % of control and 101 % of control | endpoint: mean survival time, dose: 25.0 mg/kg/injection, schedule: Q01DX009 (ip), vehicle: saline 105 % of control and 107 % of control | endpoint: mean survival time, dose: 50.0 mg/kg/injection, schedule: Q01DX009 (ip), vehicle: saline 106 % of control and 107 % of control | endpoint: mean survival time, dose: 100.0 mg/kg/injection, schedule: Q01DX009 (ip), vehicle: saline 95 % of control and 105 % of control
